In the supplement of paper PMC11451515:

Key:
Settings in all cases: 48 h
SEM cells [1] = assay: AUC of viability dose-response curve (% viability x log10 dose units); higher = less sensitive
Summary of the method: (§1)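 Medium-adapted leukemia cells in 1536-well plates, at 500 or 1000 cells/well, were incubated for 48 h at 37°C with library compounds in DMSO at 11 threefold doses from 47 μM to 0.79 nM. CellTiter-Glo One luminescence normalised per plate to DMSO and cell-free wells was fitted with a four-parameter log-logistic model over log10 doses. Area under the curve was integrated from this fit by trapezoidal rule, with curves beyond full viability scaled and failed quality-control curves removed.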

P12-Ichikawa = assay: as above
Summary of the method: as §1

NOMO1 = assay: as above
Summary of the method: as §1

SEM cells [2] = assay: cell viability relative to DMSO control; higher = less cytotoxic
Summary of the method: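 NOMO1 or SEM (500 cells/well) or P12-Ichikawa (1000 cells/well) leukemia cells were adapted for at least four passages in each medium. They were seeded in 1536-well plates (5 μl) and pin-dosed with library compounds in DMSO over an 11-point threefold series, 47 μM to 0.79 nM. CellTiter-Glo One luminescence was read after 48 h at 37°C. Viability is the per-plate percentage relative to DMSO wells, with cell-free wells as background.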

Clc1ccc2ncc(-c3cccc(NC4CNC4)n3)n2c1
AUC of viability dose-response curve
Settings | NOMO1 | P12-Ichikawa | SEM cells [1]
HPLM + 10% dialyzed FBS | 433 | 441 | 412
RPMI 5 mM glucose + 10% FBS | 455 | 439 | 427
RPMI 5 mM glucose + 10% dialyzed FBS | 443 | 443 | 411

cell viability [%], SEM cells [2]
Settings | HPLM + 10% dialyzed FBS | RPMI 5 mM glucose + 10% FBS
0.000781 µM | 120 | 119
0.00234 µM | 121 | 122
0.00702 µM | 125 | 131
0.0211 µM | 125 | 121
0.0632 µM | 136 | 147
0.19 µM | 122 | 141
0.569 µM | 115 | 119
1.71 µM | 113 | 115
5.12 µM | 77.5 | 105
15.4 µM | 67.1 | 76.9
46.1 µM | 45.8 | 47.6

C[C@@H]1C(=O)OC2[C@H](O)[C@]34[C@H]5C[C@@H](C(C)(C)C)[C@]36[C@@H](OC(=O)[C@@H]6O)O[C@@]4(C(=O)O5)[C@]21O (stereo partly specified)
AUC of viability dose-response curve
Settings | NOMO1 | P12-Ichikawa | SEM cells [1]
HPLM + 10% dialyzed FBS | 450 | 452 | 451
RPMI 5 mM glucose + 10% FBS | 457 | 445 | 437
RPMI 5 mM glucose + 10% dialyzed FBS | 457 | 450 | 424

SEM cells [2], HPLM + 10% dialyzed FBS
Settings | cell viability [%]
0.000781 µM | 116
0.00234 µM | 102
0.00702 µM | 129
0.0211 µM | 119
0.0632 µM | 127
0.19 µM | 116
0.569 µM | 117
1.71 µM | 119
5.12 µM | 91.8
15.4 µM | 107
46.1 µM | 65.8

COc1ccc(-c2oc3cc(OC)ccc3c2C(=O)c2ccc(C#N)cc2)cc1
AUC of viability dose-response curve
Settings | NOMO1 | P12-Ichikawa | SEM cells [1]
HPLM + 10% dialyzed FBS | 326 | 354 | 455
RPMI 5 mM glucose + 10% FBS | 311 | 345 | 460
RPMI 5 mM glucose + 10% dialyzed FBS | 321 | 374 | 451

cell viability [%], SEM cells [2]
Settings | HPLM + 10% dialyzed FBS | RPMI 5 mM glucose + 10% FBS | RPMI 5 mM glucose + 10% dialyzed FBS
0.000781 µM | 114 | 93.2 | 113
0.00234 µM | 117 | 109 | 123
0.00702 µM | 120 | 133 | 144
0.0211 µM | 121 | 127 | 124
0.0632 µM | 128 | 130 | 150
0.19 µM | 136 | 140 | 175
0.569 µM | 129 | 139 | 162
1.71 µM | 141 | 148 | 174
5.12 µM | 131 | 136 | 147
15.4 µM | 142 | 123 | 136
46.1 µM | 125 | 124 | 136

NC(=O)c1noc([C@H](CCCC2CCCCC2)CC(=O)NO)n1
AUC of viability dose-response curve
Settings | NOMO1 | P12-Ichikawa | SEM cells [1]
HPLM + 10% dialyzed FBS | 431 | 441 | 428
RPMI 5 mM glucose + 10% FBS | 424 | 422 | 414
RPMI 5 mM glucose + 10% dialyzed FBS | 441 | 421 | 429

CCOC(=O)[C@H](CCc1ccccc1)N[C@H]1CS[C@H](c2cccs2)CN(CC(=O)O)C1=O.Cl
AUC of viability dose-response curve
Settings | NOMO1 | P12-Ichikawa | SEM cells [1]
HPLM + 10% dialyzed FBS | 384 | 400 | 461
RPMI 5 mM glucose + 10% FBS | 408 | 401 | 437
RPMI 5 mM glucose + 10% dialyzed FBS | 395 | 421 | 468
